Test results taken from patent publication US10561633B2, “Hydroxyflavanones as appetite stimulants” (Symrise AG, priority 2014, dated 2020).
Marks after values point to notes of the source that are not given here.

What was measured:
[1] = tested on: serotonin plasma concentration; test: Change in serotonin plasma concentration of healthy subjects after oral homoeriodictyol (crossover human intervention); format: in vivo; details: 30 mg oral in 125 ml of water, on average 37 minutes after administration, n=10, water control −6.81 ± 10.6, p<0.05
Description: In order to determine the serotonin plasma concentration, whole blood is taken from healthy subjects in each case on a test day before and on average 37 minutes after administration of the test solution (1st test day: 125 ml of water; 2nd test day: 30 mg of homoeriodictyol dissolved in 125 ml of water).
The plasma is obtained from the whole blood by refrigerated centrifugation for 15 minutes at 1800×g, and the serotonin concentration in the plasma is determined by an enzyme-based detection method (Serotonin ELISA, DLD Diagnostika, Germany).
(§1) The change in the serotonin plasma concentration before and after administration of 125 ml of water or 30 mg of homoeriodictyol dissolved in 125 ml of water is shown in Table 2. There is a significant difference between the two treatments (p<0.05; n=10), which was determined by a dependent, two-sided Student's T-test and is marked *.

[2] = tested on: Human neuroblastoma cells (SH-SY5Y); test: Serotonin release from SH-SY5Y cells (Serotonin-ELISA, normalised to DNA content); format: cell-based; details: 5 min stimulation, relative to control (0.1% EtOH)
Description: Human neuroblastoma cells (SH-SY5Y, ATCC number CRL-2266) are used as the cell model for the release of the neurotransmitter serotonin. Cultivation takes place at 37° C. and 5% CO2 content with a mixture consisting of equal parts of Eagle's minimal essential medium (MEM) and F12 medium (in each case with 10% FBS and 1 penicillin/streptomycin). For measurement of the serotonin release, the cells are harvested with trypsin and, after a vitality test by trypan blue staining, sown in 35 mm cell culture dishes in a defined cell number.
After stimulation of 1.25*10^6 human neuroblastoma cells (SH-SY5Y) for 5 minutes with 300 μl of Krebs-Ringer-HEPES buffer, 0.1% ascorbic acid, pH 6.2, with or without addition of the homoeriodictyol, wherein concentrations of 0.001 μM, 0.01 μM, 0.1 μM, 1 μM and 10 μM in the Krebs-Ringer-HEPES buffer are established when the homoeriodictyol is added, the serotonin content is determined by means of an enzyme-based detection method (Serotonin-ELISA sensitive, DLD Diagnostica, Hamburg, Germany). The cells are lyzed with a buffer containing sodium lauroyl sarcosinate and the DNA content is determined by means of a NanoQuant plate (Tecan, Ménnendorf, Switzerland) for normalization of the serotonin release.
The results are shown in % relative to the control (buffer with 0.1% ethanol). n=3, tR=2. Significant differences in the treatments relative to the control were tested with a single-factor ANOVA with a subsequent Holm-Sidak post hoc test against the control and marked according to the following scheme: * p≤0.05; ** p≤0.01; *** p≤0.001. Concentration-dependent differences were tested with a single-factor ANOVA with a subsequent Holm-Sidak post hoc test and identified by different letters (a, b), wherein no common letter marks a significant difference.

[3] = tested on: serotonin plasma concentration; test: Absolute plasma serotonin concentration after oral administration of 30 mg of homoeriodictyol; format: in vivo, human; details: after oral administration of 30 mg in 125 ml of water, on average 35 minutes, healthy subjects, n=16; before administration 306 ± 152; p<0.05
Description: In order to determine the serotonin plasma concentration, whole blood is taken from healthy subjects on a test day before and on average 35 minutes after administration of 30 mg of homoeriodictyol dissolved in 125 ml of water. The plasma is obtained from the whole blood by refrigerated centrifugation for 15 minutes at 1800×g, and the serotonin concentration in the plasma is determined by an enzyme-based detection method (Serotonin-ELISA, DLD Diagnostika, Germany).
as §1, with “of” for “of 125 ml of water or”, “3.” for “2.”, “(p<0.05, n=16),” for “(p<0.05; n=10),”

3T3-L1 adipocytes = test: Fatty acid uptake in 3T3-L1 adipocytes (QBT Fatty Acid Uptake kit); format: cell-based; details: 30 min preincubation, AUC of fluorescence over one hour vs EtOH control
Description: 3T3-L1 preadipocytes (ATCC CL-173) are used as the cell model for the uptake of free fatty acid into peripheral cells, here adipocytes. Cultivation is carried out at 37° C. and 5% CO2 content in DMEM culture medium to which 10% FBS 4% L-glutamine and 1% penicillin/streptomycin have been added. In order to measure the fatty acid uptake, the 3T3-L1 cells are differentiated in 175 cm^2 cell culture bottles from fully matured adipocytes. To that end, two days after reaching confluence, the cells are stimulated to differentiate for 48 hours by the addition of 10 μg/ml insulin, 1 μM dexamethasone and 0.5 mM isobutyl methyl xanthine from the culture medium. After the cells have been treated for a further 48 hours with 10 μg/ml insulin in the cell culture medium, normal culture medium is again used until the adipocytes are fully mature. The cells are usually used for the test seven to nine days after the onset of differentiation. To that end, the cells are harvested with trypsin and, after a positive vitality test with trypan blue, scattered in a 96-well plate at a rate of 65,000 cells per well. Measurement of the fatty acid uptake is carried out after a 60-minute synchronization of the cells by removal of the fetal bovine serum and a 30-minute preincubation with Hank's balanced salt solution, to which 20 mM HEPES (HBSS/HEPES), with or without the addition of from 0.01 to 10 μM of homoeriodictyol, by means of a fluorescence-labeled fatty acid analog (QBT Fatty Acid Uptake kit, Molecular Devices, Germany), have been added. The change in the area under the curve formed by the increase in the fluorescence signal over the course of one hour is shown in % in comparison with the control. The change in the fatty acid uptake in 3T3-L1 adipocytes after preincubation for 30 minutes with HESS/HEPES buffer with 0.1% ethanol (control) or 0.01-10 μM homoeriodictyol dissolved in HBSS/HEPES buffer is shown in Table 4. Significant differences (p<0.001) relative to the control were tested with a single-factor ANOVA against the control with a subsequent Dunn's post hoc test and are marked ***. Mean values from 3-4 independent experiments with in each case 3 repetitions are shown.

COc1cc(C2CC(=O)c3c(O)cc(O)cc3O2)ccc1O (centres unmarked) [Homoeriodictyol, homoeriodictyol]
Change in the serotonin concentration in the plasma after administration of the test solution [1]: −19.1 ± 10.6
Serotonin release T/C ([2]; 0.001 μM): 62.2%
Serotonin release T/C ([2]; 0.01 μM): 42.9%
Serotonin release T/C ([2]; 0.1 μM): 42.6%
Serotonin release T/C ([2]; 1 μM): 43.5%
Serotonin release T/C ([2]; 10 μM): 71.9%
Serotonin concentration in the plasma [3]: 192 ± 122 nmol
Change in fatty acid uptake (3T3-L1 adipocytes; 0.01 μM): 4.34%
Change in fatty acid uptake (3T3-L1 adipocytes; 0.1 μM, p<0.001): 8.78*** %
Change in fatty acid uptake (3T3-L1 adipocytes; 1 μM): 4.10%
Change in fatty acid uptake (3T3-L1 adipocytes; 10 μM): −0.47%
